In patent US20090246212A1, “DEVELOPMENT OF METHOD FOR SCREENING FOR DRUG CAPABLE OF IMPROVING PRODUCTION OF REGULATORY T CELLS AND METHOD FOR PRODUCING REGULATORY T CELLS USING IMMUNOSUPPRESSIVE MACROLIDE ANTIBIOTIC” (KYOTO UNIVERSITY, priority 2005, published 2009):

Columns and labels:
[1] = system: adjuvant-induced arthritis model; conditions: model of rheumatoid arthritis; cited from earlier work
[2] = system: CD45RA^+CD25^+CD4^+ T cell line; assay: Mixed lymphocyte reaction with trans-well, rapamycin-cultured CD45RA^+CD25^+CD4^+ T cell line; format: cell-based, human; conditions: rapamycin 20 nM from day 40
Method: CD45RA^+CD25^+CD4^+ T cells or CD45RA^+CD25^−CD4^+ T cells in human peripheral blood separated in the same manner as Example 1 (5×10̂4 cells/well) were stimulated with anti-human CD3 and CD28 conjugate beads in a ratio of 4 beads per cell in a 96-well round-bottomed culture plate containing 200 μl per well of a proliferation medium (AlyS505N (produced by Cell Science & Technology Institute) supplemented with 2% human AB serum) in the presence of human IL-2 (1000 U/ml, produced by Cell Science & Technology Institute). Rapamycin (20 nM, produced by Sigma) was added to the medium 40 days after the start of cultivation. Every 3 to 4 days, half of the medium was replaced with a fresh proliferation medium containing IL-2. If necessary, the cells were separated and repeatedly re-stimulated with anti-CD3/CD28 antibody conjugate beads every 10 to 14 days. Fifty days after the start of cultivation, the cells were collected and used for functional assay.
Total CD4^+ T cells in peripheral blood were isolated in the same manner as Example 1. […] The culture product was collected, and [3H] thymidine uptake was measured using 1450 Microbeta TriLux (Wallac).

## CO[C@H]1C[C@@H]2CC[C@@H](C)[C@@](O)(O2)C(=O)C(=O)N2CCCC[C@H]2C(=O)O[C@H]([C@H](C)C[C@@H]2CC[C@@H](O)[C@H](OC)C2)CC(=O)[C@H](C)/C=C(\C)[C@@H](O)[C@@H](OC)C(=O)[C@H](C)C[C@H](C)/C=C/C=C/C=C/1C [rapamycin]
[1]
  efficacy in adjuvant-induced arthritis model: effective
[2]; conditions that allow cell contact
  T cell line's effect on proliferation of total CD4^+ T cells: strongly suppressed
[2]; contact blocked with the trans-well
  suppression of the proliferation of total CD4^+ T cells by the T cell line: interrupted
